The source of these data is EPA's ToxValDB 9.5 (doi:10.2903/j.efsa.2010.1931).

As a reminder, the NOAEL is the highest tested level that showed no adverse finding.

One series has as its system Typhlodromus pyri. Briefly: LR50; higher = less toxic. Conditions: acute; duration: 7 days; mortality.
The subject of another series is Anas platyrhynchos. Conditions: acute; oral; unspecified; mortality.
A further series has as its system Oryctolagus sp. The following applies: chronic; body weight.
In the next series the test system is Apis mellifera. The following applies: acute; duration: 48 hours; oral; unspecified; mortality.
A further series deals with Colinus virginianus. The following applies: for LD50: acute, oral, mortality.
The subject of a further series is Daphnia magna. The following applies: chronic/long-term; duration: 21 days; reproduction.
The test system of the next series is Oncorhynchus mykiss. Conditions: mortality.

Converted amounts (≈) assume the structure as drawn.

The compound `COCCOc1cccc2c1c(=O)c(C(=O)O)nn2-c1ccc(Cl)cc1` displayed an LR50 with Typhlodromus pyri of 1460 g/ha. In addition, the LD50 is more than 1440 mg/kg-day with Anas platyrhynchos; more than 100 µg/piece in the series with Apis mellifera; more than 5000 mg/kg-day with Rattus norvegicus (acute, oral, mortality); more than 642 mg/kg-day in the series on Colinus virginianus (diet); more than 1440 mg/kg-day in the series on Colinus virginianus. The figures for the NOEL with Oryctolagus sp. and with Colinus virginianus (reproduction developmental) were 125 mg/kg-day and 119 mg/kg-day, respectively. Moreover, the no observed adverse effect level (NOAEL) was found to be 9.1 mg/kg-day in the series with Rattus norvegicus (chronic, duration: 2 years, mortality) and 16.5 mg/kg-day in the series with Rattus norvegicus (subchronic, duration: 90 days, oral, histopathology: nonneoplastic). Also, the NOEC in the series on Daphnia magna worked out at 7.03 mg/L; with Tagia sp. (chronic/long-term, reproduction) it was 20 mg/kg; in the series on Oncorhynchus mykiss (chronic/long-term, duration: 28 days) it was 100 mg/L. In addition, the LC50 in the series with Tagia sp. (acute, duration: 14 days, mortality) amounted to 20 mg/kg; in the series on Oncorhynchus mykiss (acute, duration: 96 hours), 570 µg/mL (≈ 1520 µM).
